The numbers were not newly measured in paper PMC4220649 (Blood Cancer Journal, 2014), which cites them from elsewhere.

For the data set, the system named is patients with lymphoma. The conditions noted are these: IV bortezomib in lymphoma; cited from earlier work.

As for `CC(C)C[C@H](NC(=O)[C@H](Cc1ccccc1)NC(=O)c1cnccn1)B(O)O` [bortezomib], the “Grade 3 PN rates” value is on record as 3–13% and the “Overall rates of PN” value is on record as 17–55%.
